Assay: Stability of Compound J at pH = 2
Format: physicochemical
Details: pH 2, 20° C.
Description: To an HPLC vial was added a 0.2 mg/mL solution of Compound J dissolved in H2O (0.1% v/v TFA) at pH=2 and the stability was monitored by HPLC-MS at 20° C. over 16 hours. Timed aliquots at time (T)=0, 30, 60, 120, 180, 240, 480 and 960 minutes were taken and analyzed by HPLC-MS using elution method 4 at 214 nm (Table 9).

Structure (SMILES): CC(=O)N(O)CCCCCNC(=O)CCC(=O)N(O)CCCCCNC(=O)CCC(=O)N(O)CCCCCNC(=O)CCOCCOCCOCCOCCOCCOCCOCCOCCOCCOCCOCCOCCC(=O)Oc1c(Cl)cccc1Cl [Compound J, 2,6-Dichlorophenyl 1-{[5-(N-hydroxy-3-{8 5-(N-hydroxy-3-{[5-(N-hydroxyacetamido)pentyl]carbamoyl}propanamido)pentyl]carbamoyl}propanamido)pentylic carbamoyl}-3,6,9,12,15,18,21,24,27,30,33,36-dodecaoxanonatriacontan-39-oate]
- % Compound J Remaining (0 min): 97.49%
- % Compound J Remaining (30 min): 97.21%
- % Compound J Remaining (60 min): 96.67%
- % Compound J Remaining (120 min): 96.11%
- % Compound J Remaining (180 min): 96.14%
- % Compound J Remaining (240 min): 94.83%
- % Compound J Remaining (480 min): 94.39%
- % Compound J Remaining (960 min): 91.48%
